Peptide text beside a SMILES is read from it.
Tested on: H-460 human lung cancer cells
Type: cell-based
Conditions: for IC50: H-460 human lung cancer cells

Compound	IC50 [µM]	H-460 cytotoxicity
viequeamide A2	0.62	–
viequeamide X	–	no appreciable H-460 cytotoxicity
viequeamide A3	1.98	–
C#CCCC[C@@H]1OC(=O)[C@H](C(C)C)NC(=O)[C@H](C)N(C)C(=O)[C@@H]2CCCN2C(=O)[C@H](Cc2ccccc2)OC(=O)[C@H](C(C)C)N(C)C(=O)[C@H](C(C)C)NC(=O)C1(C)C [viequeamide B] (HELM PEPTIDE1{V.[meV].[O=C([C@H](Cc1ccccc1)O[*:1])[*:2]].P.[meA].V}|CHEM1{[C#CCCC[C@H](O[*:2])C(C)(C)C(=O)[*:1]]}$PEPTIDE1,CHEM1,1:R1-1:R1|PEPTIDE1,CHEM1,6:R2-1:R2$$$V2.0)	–	no appreciable H-460 cytotoxicity
viequeamide H	–	no appreciable H-460 cytotoxicity
viequeamide G	–	no appreciable H-460 cytotoxicity
CCCCC[C@@H]1OC(=O)[C@H](C(C)C)NC(=O)[C@H](C)N(C)C(=O)[C@@H]2CCCN2C(=O)[C@H](Cc2ccccc2)OC(=O)[C@H](C(C)C)N(C)C(=O)[C@H](C(C)C)NC(=O)C1(C)C [viequeamide D] (HELM PEPTIDE1{V.[meV].[O=C([C@H](Cc1ccccc1)O[*:1])[*:2]].P.[meA].V}|CHEM1{[CCCCC[C@H](O[*:2])C(C)(C)C(=O)[*:1]]}$PEPTIDE1,CHEM1,1:R1-1:R1|PEPTIDE1,CHEM1,6:R2-1:R2$$$V2.0)	–	no appreciable H-460 cytotoxicity
C=CCCC[C@@H]1OC(=O)[C@H](C(C)C)NC(=O)[C@H](C)N(C)C(=O)[C@@H]2CCCN2C(=O)[C@H](Cc2ccccc2)OC(=O)[C@H](C(C)C)N(C)C(=O)[C@H](C(C)C)NC(=O)C1(C)C [viequeamide C] (HELM PEPTIDE1{V.[meV].[O=C([C@H](Cc1ccccc1)O[*:1])[*:2]].P.[meA].V}|CHEM1{[C=CCCC[C@H](O[*:2])C(C)(C)C(=O)[*:1]]}$PEPTIDE1,CHEM1,1:R1-1:R1|PEPTIDE1,CHEM1,6:R2-1:R2$$$V2.0)	–	no appreciable H-460 cytotoxicity
